Data set [1] has as its system tau phosphorylation on AD2 epitope (pSer396-pSer404). Nature of the data set: Western blot of tau phosphorylation on AD-2 epitope after six months in food (Example 3). In kind it is in vivo, THY-Tau22 mice. The note with it: 0.0034% in food. From the text:
2-(Cyclohexylmethyl)-N-{2-[(2S)-1-methylpyrrolidin-2-yl]ethyl}-1,2,3,4-tetrahydroisoquinoline-7-sulfonamide difumarate monohydrate was administrated as a supplement in food at doses of 0.00034%, 0.0034% and 0.034% for six months in THY-Tau22 and wild type mice as follows: • Tg Veh (n=17) • Tg Active Ingredient—0.034% (n=17) • Tg Active Ingredient—0.0034% (n=17) • Tg Active Ingredient—0.00034% (n=17) • WT Veh (n=17) • WT Active Ingredient—0.034% (n=17) • WT Active Ingredient—0.0034% (n=17) • WT Active Ingredient—0.00034% (n=17) • WT groups treated with Active Ingredient are not used in the biochemical and histological studies.
(§1) For immunoblot analysis, frozen mouse tissues (either hippocampus or cortex) were homogenized using a Precellys 24 tissue homogenizer in 350 μl RIPA buffer from Cell Signaling (20 mM Tris-HCl (pH 7.5), 150 mM NaCl, 1 mM Na2 EDTA, 1 mM EGTA, 1% NP-40, 1% sodium deoxycholate, 2.5 mM sodium pyrophosphate, 1 mM beta-glycerophosphate, 1 mM Na3VO4, 1 μg/ml leupeptin) to which proteases inhibitors (Sigma cocktail 1% v/v) and phosphatases inhibitors (okadaic acid 1 μM, sodium fluoride 100 mM) were added. After centrifugation, 16000×g 4° C. for 10 minutes, protein content in supernatants was determined with BioRad DC Protein Assay kit, using BSA as a standard. Equal amounts of protein (5 μg) were loaded on 15-well 4-12% Bis-Tris gels (NuPAGE, Invitrogen) and electrophoresis was performed at 200V for 50 minutes in MOPS buffer according to the manufacturer's instructions. […] Tau protein was detected using the following mouse antibody: AD-2 1/20.000^e (Biorad, 56484) which recognizes tau protein phosphorylated on Ser396 and Ser404. […]
(§2) Following incubation with primary antibodies, blots were rinsed in TBS Tween 0.1% and incubated for 1 hour at room temperature in an anti-mouse IgG horseradish peroxidase (HRP)-linked secondary antibody 1/10,000^e (GE healthcare, NA9310) diluted in 5% non-fat dry milk in TBS Tween 0.1%. […] Quantification of immunoreactive signal was performed using Multigauge V3.0 software (FUJIFILM). […]

A short description of data set [2]: Comparison of exposures in mice (6 months in food) with those expected at steady state in AD patients. It counts as in vivo.
In data set [3] the test system is protein tau phosphorylation at AD-2 epitope. Nature of the data set: Western blot of tau phosphorylation at AD-2 epitope after two-week administration (Example 2). In kind it is in vivo. The note with it: THY-Tau22 mice. As for the experimental part: as §1, with “standard.” for “standard. Equal amounts of protein (5 μg) were loaded on 15-well 4-12% Bis-Tris gels (NuPAGE, Invitrogen) and electrophoresis was performed at 200V for 50 minutes in MOPS buffer according to the manufacturer's instructions.”
as §2

The subject of data set [4] is THY-Tau22 transgenic mice. Nature of the data set: Cognitive deficits after 6 months of treatment. It counts as in vivo. The note with it: clinically relevant doses.

Each structure is given as a SMILES string.

Take `CN1CCC[C@H]1CCNS(=O)(=O)c1ccc2c(c1)CN(CC1CCCCC1)CC2` [2-(cyclohexylmethyl)-N-{2-[(2S)-1-methylpyrrolidin-2-yl]ethyl}-1,2,3,4-tetrahydroisoquinoline-7-sulfonamide difumarate monohydrate]: in data set [1] (THY-Tau22 mice), the “protein tau phosphorylation on AD-2 epitope in hippocampus, vs vehicle” value was “statistical significant decrease”. Besides, in data set [1] (Western blot, non-significant, p=0.1807), the “inhibition of tau phosphorylation at the AD-2 epitope, cortex” value was −57%. Further, the “inhibition of tau phosphorylation at the AD-2 epitope, hippocampus” value in data set [1] (Western blot, p=0.0229 vs vehicle) is recorded as −37%. Also, the “corresponding human dose (safe for patients) by comparison of exposures” value in data set [2] (0.00034% in food of mice) is “about 0.25 mg”; in data set [2] (0.0034% in food of mice), “about 2.5 mg”. In addition, the “effect on protein tau phosphorylation at AD-2 epitope in the hippocampus” value in data set [3] (0.002% in drinking water) and in data set [3] (0.02% in drinking water) was “did not elicit any effect” throughout. The cognitive deficits entry in data set [4] is “decreases cognitive deficits”.

For the origin of these results see patent US9789102B2, “H3 receptor antagonist for use in the treatment of alzheimer's disease” (SANOFI, priority 2012, dated 2017).
